Measured values from PubChem BioAssay (NCI).
“And” between values parts separate entries of the source, which are not always exact repeats. Identical values can stand only once.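 Following 48 hours of exposure in 96-well plates, responses at five concentrations were used to interpolate endpoints linearly. The concentration for 50% growth inhibition is given as GI50. TGI: concentration producing complete growth inhibition.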

What was measured:
Assay in all cases: NCI tumour cell line growth inhibition, 48 h
[1] = system: UO-31 renal
[2] = system: MALME-3M melanoma
[3] = system: OVCAR-4 ovarian
[4] = system: SF-268 CNS
[5] = system: HT29 colon
[6] = system: SK-MEL-28 melanoma
[7] = system: SN12C renal
[8] = system: SF-539 CNS
[9] = system: IGROV1 ovarian
[10] = system: PC-3 prostate

| SMILES | TGI [1] | TGI [2] [µM] | TGI [3] [µM] | TGI [4] | TGI [5] | TGI [6] [µM] | TGI [7] [µM] | TGI [8] | TGI [9] | GI50 [1] [µM] | GI50 [4] | GI50 [5] [µM] | GI50 [10] [µM] | TGI [10] [µM] | GI50 [6] | GI50 [7] [µM] | GI50 [9] [µM] | GI50 [3] | GI50 [8] [µM] |
| --- | --- | --- | --- | --- | --- | --- | --- | --- | --- | --- | --- | --- | --- | --- | --- | --- | --- | --- | --- |
| O=C1OC(c2ccccc2)=N/C1=C\c1c(O)cc(O)cc1O | > 100 µM | > 100 | > 100 | > 100 µM | > 100 µM | > 100 | > 100 | > 100 µM | > 100 µM |  |  |  |  |  |  |  |  |  |  |
| CCOC(=O)C1=C(NC(C)(C)C)OCC1=O | > 100 µM | > 100 | > 100 | > 100 µM | > 100 µM | > 100 | > 100 | > 100 µM | > 100 µM |  |  |  |  |  |  |  |  |  |  |
| CCOC(=O)c1cc2cc(NC(=O)c3cc4cc([N+](=O)[O-])ccc4n3C)ccc2n1C | > 100 µM |  |  | > 100 µM | > 100 µM | > 100 | 46.5 |  | > 100 µM | > 100 | 49.1 µM | 24.9 | 22.6 | 52.9 | 63.6 µM | 16.3 | > 100 |  |  |
| Cc1[nH]c(=O)nc(CC(O)(c2ccccc2)c2ccccc2)c1-c1ccccc1 | > 100 µM | > 100 | > 100 | > 100 µM | > 100 µM | > 100 | > 100 | > 100 µM | > 100 µM |  |  |  |  |  |  |  |  |  |  |
| CC(C)=CCC/C(C)=C/CC/C(=C/COP(=O)(OCc1ccc([N+](=O)[O-])o1)N(C)CCCCCl)CC=C(C)C (centres undefined) | 18.2 µM |  | 48.3 | 29.9 µM | 33.6 µM | 43 | 12.3 | 11.9 µM | 14.4 µM | 5.56 | 15.1 µM | 4.56 | 8.62 | 24.3 | 19.6 µM | 2.98 | 3.39 | 11.9 µM | 3.52 |
| CC1CCCN(CC(O)CN2CCCc3ccccc32)C1 (centres undefined) | > 100 µM | > 100 | > 100 | > 100 µM | > 100 µM | > 100 | > 100 |  | > 100 µM |  |  |  |  | > 100 |  |  |  |  |  |
| O=C1C=CN(C2OC(CO)C(O)C2O)C(=O)C1 (centres undefined) | 625 µM and > 2500 µM |  | > 2500 | 625 µM and > 2500 µM | 625 µM and > 1730 µM | > 2500 |  | 625 µM and 1800 µM | 625 µM and > 2210 µM | 26.7 | 172 µM and 231 µM | 13 |  | > 2500 | > 625 µM and 252 µM | 1.34 | 77 | > 625 µM and 953 µM | 146 |
| CC(C)CC(CNC(Cc1ccc(Cl)cc1)C(N)=O)NC(=O)C(Cc1cnc[nH]1)NC(=O)CNC(=O)C(NC(=O)C(C)NC(=O)C(Cc1c[nH]c2ccccc12)NC(=O)C(CCC(=O)O)NC(=O)C(N)Cc1ccccc1)C(C)C (centres undefined) | > 133 µM |  | > 133 |  | > 133 µM | > 133 | > 133 | > 133 µM | > 133 µM |  |  |  |  |  |  |  |  |  |  |
| N#CCC(=O)N/N=C1/C(=O)NC(=O)C(=O)C1c1nc2ccccc2s1 (centres undefined) | > 100 µM | > 100 | > 100 | > 100 µM | > 100 µM | > 100 | > 100 | > 100 µM | > 100 µM |  |  |  |  |  |  |  |  |  |  |
| CCOC(OCC)c1ccc(/C=C/c2cc(OC)c(OC)c(OC)c2)cc1 | 45.7 µM | 43.8 | 68.1 | 71.8 µM | 33.6 µM | 56.7 | 36.9 | 29.8 µM | > 100 µM |  |  |  |  |  |  |  |  |  |  |
